Test results reported in patent US8101580B2, “Therapeutic agent for irritable bowel syndrome” (Astellas Pharma Inc., priority 2005, dated 2012).

How the values were obtained:
[1] = biological target: T1, BB2 receptor (Homo sapiens, UniProt P30550); experiment: BB2 receptor binding test (125I [Tyr4] bombesin, PC-3 cell membrane sample); conditions: membrane sample of human prostate cancer-derived PC-3 cell; 125I [Tyr4] bombesin 0.075 nM; room temperature, 2 hours; read-out: 50% binding inhibition concentration
T1 construct: endogenous in cells; host or cells: PC-3 human prostate cancer cells (membrane preparation)
T1 sequence (P30550 whole entry): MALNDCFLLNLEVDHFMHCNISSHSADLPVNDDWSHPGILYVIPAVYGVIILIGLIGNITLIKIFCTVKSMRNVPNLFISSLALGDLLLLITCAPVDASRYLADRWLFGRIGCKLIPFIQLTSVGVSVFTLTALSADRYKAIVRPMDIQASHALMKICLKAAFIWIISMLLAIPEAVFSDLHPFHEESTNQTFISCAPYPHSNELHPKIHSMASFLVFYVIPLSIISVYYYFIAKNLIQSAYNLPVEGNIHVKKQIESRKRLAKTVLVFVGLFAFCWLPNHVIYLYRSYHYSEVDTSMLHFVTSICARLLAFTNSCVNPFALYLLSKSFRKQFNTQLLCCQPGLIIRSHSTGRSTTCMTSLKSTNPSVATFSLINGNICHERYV
Method: A BB2 receptor binding test was carried out using a membrane sample prepared from a human prostate cancer-derived PC-3 cell. The PC-3 cell was cultured using RPMI-1640 medium containing 5% fetal bovine serum, and then a membrane sample was prepared by the following methods. The cells loosened by a trypsin treatment were mixed with 50 mM Tris-HCl buffer (pH 7.4, containing 0.2 mg/ml trypsin inhibitor and 0.2 mg/ml benzamidine) and homogenized by Polytron. The cell suspension was centrifuged at 1,500 rpm for 10 minutes, and the thus obtained supernatant was subjected to 1 hour of ultracentrifugation at 37,000 rpm. The precipitate was suspended in the aforementioned buffer to a concentration of 0.4 mg protein/ml and stored at −80° C.
The BB2 receptor binding test was carried out by the following method, and the receptor antagonistic activity of a compound to be tested was calculated. A 50 μl portion of the membrane sample, 50 μl of an assay buffer (20 mM HEPES-HBSS containing 0.1% bovine serum albumin and 0.1 mg/ml bacitracin, pH 7.4) ^125I [Tyr^4] bombesin (0.075 nM) and 2 μl of each compound to be tested dissolved in dimethyl sulfoxide were added to a 96 well assay plate and incubated at room temperature for 2 hours. Non-specific binding was measured using 1 μM of bombesin. After completion of the incubation, the reaction liquid was filtered through a Whatman GF/B filter which had been soaked in 0.5% polyethyleneimine. The radioactivity on the filter was measured using a microplate scintillation counter (Top Count, Perkin-Elmer).

[2] = system: fed male Sprague-Dawley rats; experiment: Conditioned-fear stress (CFS)-induced defication model; type: in vivo; conditions: wet weight of feces for 30 minutes
Method: Fed male Sprague-Dawley rats were used. The rats were put into an electric shock device having a grid set in the floor (17×17×39 cm, trade name: CB 2000 type, O'Hara), and conditioning was carried out after 3 seconds of a warning sound, by applying an electric current of 2.5 mA for 5 seconds per once per minute, a total of 15 times, and carrying out light irradiation by three 40 W electric bulbs at the time of the electric shock. The normal group was put into the measuring device by the same protocol, but the electric shock was not applied. After about 24 hours, the rats were again put into the electric shock device just after intraperitoneal administration of tested compound, and CFS loading was carried out by applying 3 seconds of warning sound and 5 seconds light irradiation for 30 minutes. Wet weights of excreted feces were measured for 30 minutes starting from the commencement of CFS loading. In this connection, the feces just after putting of the rats into the measuring device were excluded from measured values.

[3] = system: fed male Wistar rats; experiment: Abdominal pain model by large intestinal distension using abdominal muscle contraction reaction as the index; type: in vivo
Method: Fed male Wistar rats were used. Under pentobarbital anesthesia, an electrode for electromyogram use (trade name: M-1.5I, Star Medical) was sewed on the outer abdominal oblique muscle. The electrode cord was fished out from the body of around the back of the head through the skin and protected with a protective jacket prepared by processing Velcro. The test was carried out when 5 days or more passed after the surgical operation.
On the day of the test, a latex balloon of 5 to 6 cm in length was inserted from the rat anus under a light ether anesthesia and adjusted such that the balloon end is positioned at 2 cm from the anus. The catheter continuing from the balloon was fixed to the tail base with a tape and connected to a pressure transducer and a plastic bottle filled with water via a three-way cock. The plastic bottle was connected to a motor-aided device such that its height can be increased at a constant rate, and the colon-rectum was distended by increasing height of the plastic bottle. The balloon internal pressure signal was amplified using an amplifier for strain pressure use. After recovering from the ether anesthesia in a cage (23.5×19×19 cm), the colon-rectum distension was carried out. […] As a result, the abdominal muscle contracts and the electromyogram activities increase suddenly and sharply. The pressure at this point of time was regarded as the abdominal pain reflection threshold value. The electromyogram activities were amplified using an amplifier for bioelectric use (trade name: AB-621G, Nihon Kohden Corp.), and recorded by a data recording interface (trade name: 1401 plus, Cambridge Electronic Design, Cambridge, England). The colon-rectum distension was repeatedly carried out at intervals of 4 minutes until completion of the test. The compound was administered 2 minutes after completion of the measurement of the pre-administration value, and the colon-rectum distension was repeated until 60 minutes after the administration. […]

[4] = system: fed male ddY mice; experiment: Restraint stress-induced defication model; type: in vivo; conditions: for 50% inhibition dose for restraint stress-induced defication: number of feces excreted during 1 hour of restraint
Source text: RC-3095 was used by dissolving in physiological saline, and compound 1, compound 3 and compound 5 in physiological saline containing 5% ethanol+5% Cremophor, and compound 2 and compound 4 in water for injection containing 20% propylene glycol+20% Tween 80. Just after intraperitoneal administration of a compound to be tested to each of fed male ddY mice, the animal was put into a restraint stress cage (KN-469, Natsume Seisakusho). The number of feces excreted during a period of from the restriction commencement to 1 hour thereafter was measured. Normal group was put into a separate cage, and number of feces excreted during 1 hour was measured in the same manner.

[5] = system: patients; conditions: IBS patients; cited from earlier work

SMILES | IC50 [1] [nM] | 50% inhibition dose for restraint stress-induced defication ([4]; intraperitoneal) [mg/kg] | other results
CC(C)CC(CN[C@@H](CC(C)C)C(N)=O)NC(=O)[C@H](Cc1cnc[nH]1)NC(=O)CNC(=O)[C@@H](NC(=O)C(C)NC(=O)[C@H](Cc1c[nH]c2ccccc12)NC(=O)[C@H](CCC(N)=O)NC(=O)[C@H]1Cc2c([nH]c3ccccc23)CN1)C(C)C (some centres unmarked) [RC-3095] | 20 | 5.2 | effect on CFS-induced defication at 10 mg/kg (in words) ([2]; 10 mg/kg intraperitoneal): significant inhibitory action; effect on CFS-induced defication (in words) ([2]; intraperitoneal, FIG. 8): dose-dependent inhibitory effect on the defication; action on abdominal pain threshold value at 3 mg/kg (in words) ([3]; 3 mg/kg, AUC of threshold values until 60 minutes): significant increasing action; action on abdominal pain threshold value at 10 mg/kg (in words) ([3]; 10 mg/kg, AUC of threshold values until 60 minutes): significant increasing action; action on abdominal pain threshold value (in words) ([3]; AUC of threshold values until 60 minutes after administration, FIG. 9): dose-dependently increase abdominal pain threshold value; effect on restraint stress-induced defication (in words) ([4]; intraperitoneal, FIG. 2): dose-dependent inhibitory effect on the defication
Cc1[nH]cnc1CN1CCc2c(c3ccccc3n2C)C1=O [alosetron] | – | – | improving rate for abdominal symptoms and diarrhea [5]: 40 to 60%; serious side effect [5]: ischemic colitis (including mortal cases)
c1ccc(-c2sc(-c3ccccn3)nc2-c2cccc3ccccc23)cc1 [compound 1, 2-[4-(1-naphthyl)-5-phenyl-1,3-thiazol-2-yl]pyridine] | 504 | – | inhibitory effect on the defication ([4]; 10 mg/kg intraperitoneal, number of feces during 1 hour of restraint): about 83%
O=C(Nc1ccc(S(=O)(=O)N2CCCCC2c2cccnc2)cc1)c1cc([N+](=O)[O-])ccc1Cl (centres unmarked) [compound 3, 2-chloro-5-nitro-N-(4-{[2-(pyridin-3-yl)piperidin-1-yl]sulfonyl}phenyl)benzamide] | 342 | 19.0 | –
COc1cc(OC)cc(C(=O)Nc2sc3c(c2-c2nc4ccccc4s2)CCN(C(C)C)C3)c1.Cl [compound 5, N-[3-(1,3-benzothiazol-2-yl)-6-isopropyl-4,5,6,7-tetrahydrothieno[2,3-c]pyridin-2-yl]-3,5-dimethoxybenzamide hydrochloride] | 383 | 15.6 | –

The next lines start with results.

IC50 [1] [nM] | SMILES | 50% inhibition dose for restraint stress-induced defication ([4]; intraperitoneal) [mg/kg] | other results
1330 | O=C(/C=C/c1ccc(-c2ccc([N+](=O)[O-])cc2)o1)c1ccccc1 [compound 2, (2E)-3-[5-(4-nitrophenyl)-2-furyl]-1-phenyl-2-propen-1-one] | 34.3 | –
398 | COc1ccc(N(CC(=O)Nc2ccc(Cl)cc2C)S(=O)(=O)c2ccccc2)cc1OC [compound 4] | 13.5 | –
